Results published in US20140072654A1, “CANCER WITH METABOLIC THERAPY AND HYPERBARIC OXYGEN” (priority 2011, published 2014).

Tests used:
VM-M3 cells = format: cell-based, mouse; conditions: 5 mM βHB, 24, 48, 72 and 96 hrs
Procedure: Cell proliferation rate was measured using the MTT Cell Proliferation Assay (ATCC). Cells were plated onto a 96 well plate and grown to desired density. […] In proliferating cells, MTT is reduced to purple formazan which absorbs light at 490-520 nm and whose excitation can be measured using standard fluorescent microscopy and spectrophotometry. Rapidly dividing cells reduce MTT at very high rates, indicating their rate of proliferation. Cell proliferation can also be measured with Ki67 immunohistochemistry staining, cell viability can also be evaluated with the LDH Cytotoxicity Assay (Cayman Chemical).
Cell viability was measured using the LIVE/DEAD Viability/Cytotoxicity Kit for Mammalian Cells (Invitrogen). Cells were grown to desired density on a coverslip and washed with Dulbecco's phosphate-buffered saline (D-PBS). […] The two-color fluorescence assay contains two probes which specifically label live or dead cells. […] Calcein produces an intense green fluorescence with an excitation/emission of 495/515 nm. Ethidium homodimer-1 (Ethd-1) enters cells with damaged membranes and binds to nucleic acid. Ethd-1 bound to DNA produces a red fluorescence in dead cells with an excitation/emission of 495/635 nm. Live and dead cells were identified and quantified using standard fluorescent microscopy. […]

[1] = in vivo; cited from earlier work

Compound | proliferation (VM-M3 cells) | levels of ketones produced by supplementation [1]
CC(O)CC(=O)O (stereo not drawn) [βHB, β-hydroxybutyrate] | significantly decreased | –
MCT oil | – | < 500 µM
